In paper PMC8400257, “2-Phenoxy-3-Trichloromethylquinoxalines Are Antiplasmodial Derivatives with Activity against the Apicoplast of Plasmodium falciparum” (Pharmaceuticals, 2021):
Like-named read-outs stand apart in the source and are kept apart here.

Assays:
[1] = test system: K1 chloroquine and pyrimethamine-resistant P. falciparum strain; experiment: In vitro antiplasmodial evaluation (SYBR Green I); type: cell-based, Plasmodium falciparum; conditions: for EC50: read-out: EC50 PfK1 (µM) ± SD; for SI (selectivity index): SI = CC50 HepG2/EC50 PfK1
Method: (§1) For all molecules, the selectivity index was calculated as following SI = CC50/EC50.
It was maintained in continuous culture, as described previously by Trager and Jensen. Cultures were maintained in fresh A+ human erythrocytes at 2.5% hematocrit in complete medium (RPMI 1640 with 25 mM HEPES, 25 mM NaHCO3, 10% of A+ human serum) at 37 °C under reduced O2 atmosphere (gas mixture 10% O2, 5% CO2, and 85% N2). Parasitemia was maintained daily between 1 and 3%. The P. falciparum drug susceptibility test was carried out by comparing quantities of DNA in treated and control cultures of parasite in human erythrocytes according to an SYBR Green I fluorescence-based method using a 96-well fluorescence plate reader. Compounds, previously dissolved in DMSO (final concentration less than 0.5% v/v), were incubated in a total assay volume of 200 μL (RPMI, 2% hematocrit and 0.4% parasitemia) for 72 h in a humidified atmosphere (10% O2 and 5% CO2) at 37 °C, in 96-well flat bottom plates. Duplicate assays were performed for each sample. After incubation, plates were frozen at […] for 24 h. Then, the frozen plates were thawed for 1 h at 37 °C. Fifteen µL of each sample were transferred to 96-well flat bottom non-sterile black plates (Greiner Bio-one, Kremsmünster, Austria), already containing 15 µL of the SYBR Green I lysis buffer (2X SYBR Green I, 20 mM Tris base pH 7.5, 20 mM EDTA, 0.008% w/v saponin, 0.08% w/v Triton X-100). […] Plates were incubated for 15 min at 37 °C and then read on a TECAN Infinite F-200 spectrophotometer with excitation and emission wavelengths at 485 and 535 nm, respectively.

[2] = test system: HepG2 human hepatocyte cell line; experiment: In vitro cytotoxicity evaluation HepG2 (MTT); type: cell-based
Method: as §1
(§2) Triplicate assays were performed for each sample. Each plate-well was then microscopically examined for possible precipitate formation before the medium was aspirated from the wells. Next, 100 µL of MTT (3-(4,5-dimethyl-2-thiazolyl)-2,5-diphenyl -2H-tetrazolium bromide) solution (0.5 mg/mL in medium without FBS) was added to each well. […] After this time, the MTT solution was removed and DMSO (100 μL) was added to dissolve the resulting blue formazan crystals. Plates were shaken vigorously (700 rpm) for 10 min. The absorbance was measured at 570 nm with 630 nm as reference wavelength using a BIO-TEK ELx808 Absorbance Microplate Reader (LabX, Midland, ON, Canada). DMSO was used as blank and doxorubicin (purchased from Sigma Aldrich) as positive control. Cell viability was calculated as a percentage of control (cells incubated without compound). […] CC50 values to represent the mean value calculated from three independent experiments.

[3] = Aqueous solubility in the cell culture medium; type: physicochemical
Method: It appeared that the cluttered derivatives (3q, 3s) and the 2-chlorophenoxy derivative (3b) were the less cytotoxic compounds.
The HepG2 cell line was maintained at 37 °C, 5% CO2, at 90% humidity in MEM supplemented with 10% fetal bovine serum, 1% L-glutamine (200 mM), and penicillin (100 U/mL)/streptomycin (100 μg/mL) (complete RPMI medium). The cytotoxicity of the tested molecules on the HepG2 (hepatocarcinoma cell line purchased from ATCC, ref HB-8065) cell line was assessed according to the method of Mosmann with slight modifications. Briefly, 5.10^3 cells in 100 μL of complete medium were inoculated into each well of 96-well plates and incubated at 37 °C in humidified 5% CO2. After 24 h incubation, 100 μL of medium with various product concentrations dissolved in DMSO (final concentration less than 0.5% v/v) were added and the plates were incubated for 72 h at 37 °C. Triplicate assays were performed for each sample. Each plate-well was then microscopically examined for possible precipitate formation before the medium was aspirated from the wells. Next, 100 µL of MTT (3-(4,5-dimethyl-2-thiazolyl)-2,5-diphenyl -2H-tetrazolium bromide) solution (0.5 mg/mL in medium without FBS) was added to each well. Cells were incubated for 2 h at 37 °C. After this time, the MTT solution was removed and DMSO (100 μL) was added to dissolve the resulting blue formazan crystals. Plates were shaken vigorously (700 rpm) for 10 min. The absorbance was measured at 570 nm with 630 nm as reference wavelength using a BIO-TEK ELx808 Absorbance Microplate Reader (LabX, Midland, ON, Canada). DMSO was used as blank and doxorubicin (purchased from Sigma Aldrich) as positive control. Cell viability was calculated as a percentage of control (cells incubated without compound). […] CC50 values to represent the mean value calculated from three independent experiments.

[4] = In vitro cytotoxicity evaluation HepG2 (MTT); type: cell-based, human; conditions: human, CC50 HepG2 (µM) ± SD
Method: as §1, §2

[5] = K1 strain, 72 h incubation, three independent experiments
[6] = Plasmodium falciparum, K1, 72 h, K1 strain, 72 h incubation, three independent experiments

For “2-(Naphthalen-1-yloxy)-3-trichloromethylquinoxaline [3r]”, the EC50 [1, 5] was 0.4 ± 0.08 µM, the CC50 [2] was over 31.2 µM and the “Aqueous solubility in the cell culture medium” value (“Aqueous solubility” below) [3] was “poor aqueous solubility”.
“2-(Naphthalen-2-yloxy)-3-trichloromethylquinoxaline [3q]” gave an EC50 [1, 5] of 0.6 ± 0.1 µM and a CC50 [2] of 53.1 ± 7.6 µM.
With `ClC(Cl)(Cl)c1nc2ccccc2nc1Oc1ccccc1` [3a, 2-Phenoxy-3-trichloromethylquinoxaline] the melting point was 59 °C, the EC50 [1, 6] was 0.47 ± 0.1 µM and the “SI (selectivity index)” value [1] was 96.4. The CC50 at 72 h [4] was 45.3 ± 9.6 µM.
With `Clc1ccccc1Oc1nc2ccccc2nc1C(Cl)(Cl)Cl` [3b, 2-(2-Chlorophenoxy)-3-trichloromethylquinoxaline] the melting point was 99 °C, the EC50 [1, 6] was 0.55 ± 0.12 µM and the “SI (selectivity index)” value [1] was 90.0. The CC50 at 72 h [4] was 49.5 ± 10.1 µM.
In the case of `Clc1cccc(Oc2nc3ccccc3nc2C(Cl)(Cl)Cl)c1` [3c], the melting point is reported as 58 °C, the EC50 [1, 6] is reported as 0.34 ± 0.06 µM and the “SI (selectivity index)” value [1] is reported as 109.4. For the same compound, the CC50 at 72 h [4] was 37.2 ± 8.1 µM.
With `Clc1ccc(Oc2nc3ccccc3nc2C(Cl)(Cl)Cl)c(Cl)c1` [3d, 2-(2,4-Dichlorophenoxy)-3-trichloromethylquinoxaline] the melting point was 120 °C, the EC50 [1, 6] was 0.6 ± 0.12 µM and the “SI (selectivity index)” value [1] was 62.8. It also gave a CC50 at 72 h [4] of 37.7 ± 4.7 µM.
With `Fc1ccccc1Oc1nc2ccccc2nc1C(Cl)(Cl)Cl` [3e, 2-(2-Fluorophenoxy)-3-trichloromethylquinoxaline] the melting point was 138 °C, the EC50 [1, 6] was 0.64 ± 0.14 µM and the “SI (selectivity index)” value [1] was over 24.4. The CC50 at 72 h [4] was over 15.6 µM and the “Aqueous solubility” value [3] was “poor aqueous solubility”.
In the case of `Fc1cccc(Oc2nc3ccccc3nc2C(Cl)(Cl)Cl)c1` [3f, 2-(3-Fluorophenoxy)-3-trichloromethylquinoxaline], the melting point is reported as 101 °C, the EC50 [1, 6] is reported as 0.32 ± 0.07 µM and the “SI (selectivity index)” value [1] is reported as 105.0. The CC50 at 72 h [4] was 33.5 ± 6.3 µM.
With `Fc1ccc(Oc2nc3ccccc3nc2C(Cl)(Cl)Cl)cc1` [3g, 2-(4-Fluorophenoxy)-3-trichloromethylquinoxaline] the melting point was 56 °C, the EC50 [1, 6] was 0.42 ± 0.09 µM and the “SI (selectivity index)” value [1] was 85.5. It also gave a CC50 at 72 h [4] of 35.9 ± 7.5 µM.
In the case of `COc1ccc(Oc2nc3ccccc3nc2C(Cl)(Cl)Cl)cc1` [3h, 2-(4-Methoxyphenoxy)-3-trichloromethylquinoxaline], the melting point is reported as 171 °C, the EC50 [1, 6] is reported as 0.38 ± 0.08 µM and the “SI (selectivity index)” value [1] is reported as over 20.6. The CC50 at 72 h [4] was over 7.8 µM and the “Aqueous solubility” value [3] was “poor aqueous solubility”.
For `FC(F)(F)c1ccc(Oc2nc3ccccc3nc2C(Cl)(Cl)Cl)cc1` [3j, 2-Trichloromethyl-3-[4-(trifluoromethyl)phenoxy]quinoxaline], the melting point was 129 °C, the EC50 [1, 6] was 0.3 ± 0.06 µM and the “SI (selectivity index)” value [1] was 94.3. The CC50 at 72 h [4] was 28.3 ± 4.4 µM.
In the case of `FC(F)(F)Oc1ccc(Oc2nc3ccccc3nc2C(Cl)(Cl)Cl)cc1` [3k, 2-Trichloromethyl-3-[4-(trifluoromethoxy)phenoxy]quinoxaline], the melting point is reported as 66 °C, the EC50 [1, 6] is reported as 0.4 ± 0.08 µM and the “SI (selectivity index)” value [1] is reported as 67.8. For the same compound, the CC50 at 72 h [4] was 27.1 ± 4.7 µM.
In the case of `FS(F)(F)(F)(F)c1ccc(Oc2nc3ccccc3nc2C(Cl)(Cl)Cl)cc1` [3l, 2-Trichloromethyl-3-[4-(pentafluorosulfanyl)phenoxy]quinoxaline], the melting point is reported as 99 °C, the EC50 [1, 6] is reported as 0.2 ± 0.03 µM and the “SI (selectivity index)” value [1] is reported as 83.0. For the same compound, the CC50 at 72 h [4] was 15.4 µM and the CC50 ([2]; human, 72 h) was 16.6 ± 3.9 µM.
With `FC(F)(F)Sc1ccc(Oc2nc3ccccc3nc2C(Cl)(Cl)Cl)cc1` [3m, 2-Trichloromethyl-3-[4-(trifluoromethylthio)phenoxy]quinoxaline] the melting point was 94 °C, the EC50 [1, 6] was 0.2 ± 0.04 µM and the “SI (selectivity index)” value [1] was 128.0. The CC50 at 72 h [4] was 25.6 ± 4.6 µM.
For `N#Cc1ccc(Oc2nc3ccccc3nc2C(Cl)(Cl)Cl)cc1` [3n, 4-[(3-Trichloromethylquinoxalin-2-yl)oxy]benzonitrile], the melting point was 194 °C, the EC50 [1, 6] was 0.2 µM and the CC50 at 72 h [4] was 16.6 µM. It also gave a CC50 ([2]; human, 72 h) of 15.4 ± 2.1 µM.
In the case of `O=S(=O)(c1ccc(Oc2nc3ccccc3nc2C(Cl)(Cl)Cl)cc1)C(F)(F)F` [3o, 2-Trichloromethyl-3-[4-(trifluoromethylsulfonyl)phenoxy]quinoxaline], the melting point is reported as 107 °C, the EC50 [1, 6] is reported as 0.22 ± 0.07 µM and the “SI (selectivity index)” value [1] is reported as 32.7. The CC50 at 72 h [4] was 7.2 ± 1.4 µM.
In the case of `N=S(=O)(c1ccc(Oc2nc3ccccc3nc2C(Cl)(Cl)Cl)cc1)C(F)(F)F` (stereo not drawn) [3p, 2-Trichloromethyl-3-[4-(S-trifluoromethylsulfonimidoyl)phenoxy]quinoxaline], the melting point is reported as 127 °C, the EC50 [1, 6] is reported as 0.21 ± 0.05 µM and the “SI (selectivity index)” value [1] is reported as 31.0. It also gave a CC50 at 72 h [4] of 6.5 ± 1.4 µM.
With `ClC(Cl)(Cl)c1nc2ccccc2nc1Oc1ccc(-c2ccccc2)cc1` [3s, 2-([1,1′-Biphenyl]-4-yloxy)-3-trichloromethylquinoxaline] the melting point was 160 °C, the EC50 [1, 6] was 0.6 ± 0.1 µM and the “SI (selectivity index)” value [1] was over 104.2. For the same compound, the CC50 at 72 h [4] was over 62.5 µM and the “Aqueous solubility” value [3] was “poor aqueous solubility”.
For `ClC(Cl)(Cl)c1nc2ccccc2nc1Oc1cccc(-c2ccccc2)c1` [3t, 2-([1,1′-Biphenyl]-3-yloxy)-3-trichloromethylquinoxaline], the EC50 [1, 6] was 0.5 ± 0.05 µM, the “SI (selectivity index)” value [1] was over 62.5 and the CC50 at 72 h [4] was over 31.2 µM. For the same compound, the “Aqueous solubility” value [3] was “poor aqueous solubility”.
`O=[N+]([O-])c1ccc(Oc2cnc3ccccc3n2)cc1` [3u, 2-(4-Nitrophenoxy)quinoxaline] showed a melting point of 156 °C, an EC50 [1, 5] of over 16 µM and an EC50 [1, 6] of over 25 µM.
Work on `O=[N+]([O-])c1ccc(Oc2nc3ccccc3nc2C(F)(F)F)cc1` [3v, 2-(4-Nitrophenoxy)-3-trifluoromethylquinoxaline] yielded a melting point of 125 °C, an EC50 [1, 5] of over 16 µM and an EC50 [1, 6] of over 25 µM.
In the case of `O=[N+]([O-])c1ccc(Oc2nc3ccccc3nc2C(Cl)Cl)cc1` [3w, 2-Dichloromethyl-3-(4-nitrophenoxy)quinoxaline], the melting point is reported as 112 °C and the EC50 [1, 6] is reported as over 16 µM.
In the case of `C[C@H]1[C@H](OC(=O)CCC(=O)O)O[C@@H]2O[C@@]3(C)CC[C@H]4[C@H](C)CC[C@@H]1[C@@]24OO3` [Artesunate, reference compound], the EC50 [1, 6] is reported as 0.003 ± 0.0012 µM, the “SI (selectivity index)” value [1] is reported as 4900 and the CC50 at 72 h [4] is reported as 14.7 ± 1.4 µM.
`CCN(CC)CCCC(C)Nc1ccnc2cc(Cl)ccc12` (stereo not drawn) [Chloroquine, reference compound] gave an EC50 ([1]; Plasmodium falciparum, K1, 72 h) of 0.8 µM.
For `COc1cccc2c1C(=O)c1c(O)c3c(c(O)c1C2=O)C[C@@](O)(C(=O)CO)C[C@@H]3O[C@H]1C[C@H](N)[C@H](O)[C@H](C)O1` [Doxorubicin, reference compound], the CC50 at 72 h [4] was 0.2 µM.
In the case of `C[C@H]1c2cccc(O)c2C(=O)C2=C(O)[C@]3(O)C(=O)C(C(N)=O)=C(O)[C@@H](N(C)C)[C@@H]3[C@@H](O)[C@@H]21` [Doxycycline, reference compound], the EC50 [1, 6] is reported as 6 µM, the “SI (selectivity index)” value [1] is reported as 3.3 and the CC50 at 72 h [4] is reported as 20 µM.
